According to US8524654B2, “Prolyl endopeptidase inhibitors for reducing or preventing neutrophilic inflammation” (The UAB Research Foundation, priority 2007, dated 2013):
Entries after “also recorded” stand apart in the source; their conditions may differ. Residues, ends and D or L forms follow the SMILES beside them. *: point of attachment. Cbz = O=C(OCc1ccccc1)*

Columns and labels:
[1] = system: PGP production by CF sputum on type I collagen; assay: Ex vivo collagen assay: PGP generation by pooled CF sputum with inhibitors; type: biochemical, human
Experimental: (§1) Electrospray ionization liquid chromatography-MS/MS. (ESI-LC/MS/MS) for PGP detection PGP and N-α-PGP were measured for in vitro and sputum samples using a MDS Sciex (Applied Biosystems, Foster City, Calif.) API-4000 spectrometer equipped with a Shimadzu HPLC. HPLC was done using a 2.1×150-mm Develosi C30 column (with buffer A: 0.1% formic acid, and buffer B: acetonitrile plus 0.1% formic acid); at 0-0.6 min, 80% buffer A/20% buffer B and at 0.6-5 min, the gradient is up to 0% buffer A/100% buffer B. Background was removed by flushing with 100% isopropanol plus 0.1% formic acid. Positive electrospray mass transitions were at 270-70 and 270-116 for PGP and 312-140 and 312-112 for N-α-PGP.
Ex vivo collagen assay. One hundred microliters of saline-diluted sputum was incubated with extensively dialyzed, intact type I or II collagen (50 μl, 1 mg/ml) for 24 h at 37° C. and 5% CO2. The samples were filtered through a 10-kDa filter, washed with 20 μl of 1 N HCl, and analyzed using ESI-LC-MS/MS for levels of PGP and N-αPGP. Amounts of PGP and N-α-PGP generated by each sputum sample were determined by subtracting basal levels already present in each sample.
For the inhibitor experiments, these pooled sputa were treated with noted inhibitor and allowed to incubate for 6 h. At 6 h, dialyzed collagen was added to the sample and sample was further incubated for 18 h. Inhibitor concentrations used were: MMP-8, -9, and -2 at 50 μM, PE at 100 μM, and doxycycline at 1 mM.

neutrophil = conditions: in vitro; cited from earlier work
[2] = system: PGP production in murine airways; assay: In vivo murine intratracheal protease administration, PGP in bronchoalveolar lavage fluid; design: species or system BALB/c mice; conditions: 50 μl, lavage 24 h later, ESI LC-MS/MS, vs PBS control
Experimental: In vivo PGP production was examined using MMPs or human neutrophil elastase (HNE) with or without PE. Various proteases (50 μl) were administered intratracheally into murine (4- to 6-wk-old BALB/c mice) airways and bronchoalveolar lavage fluid was collected 24 h later. PGP levels were determined using ESI LC-MS/MS. […] Number of mice per group=6.
as §1
In vivo murine administration. Mice underwent intratracheal protease administration as described in FIG. 5 legend. MMPs were preactivated using 1 mM aminophenylmercuric acetate for 2 hours at 37° C. The concentrations of proteases administered were: MMP-8, MMP-9, and MMP-12: 55.6 μg/kg; HNE: 200 μg/kg; and PE: 18.4 mg/kg. […]

Molecule: CC(C)(C)C(=O)Oc1ccc(S(=O)(=O)Nc2ccccc2C(=O)NCC(=O)O)cc1 [HNE-specific inhibitor, N-(2-(4-(2,2-dimethylpropionyloxy)phenylsulfonylamino)benzoyl)aminoacetic acid N-(o-(p-pivaloyloxybenzene)sulfonylaminobenzoyl) glycine]
- inhibition of PGP production compared with CF sputum alone ([1]; HNE inhibitor, concentration not given, pooled CF sputum, type I collagen): minimal effects; also recorded: Neither MMP-2-nor HNE-specific inhibitors resulted in significant changes

Molecule: O=CC1CCCN1C(=O)C1CCCN1C(=O)OCc1ccccc1 (stereo not drawn) [PE inhibitor, Z-prolyl prolinal] (Cbz-Pro-Pro-aldehyde; configuration not given here)
- inhibition of PGP production compared with CF sputum alone ([1]; PE inhibitor at 100 μM, 6 h with pooled CF sputum, then type I collagen, 100 µM): completely blocked; also recorded: complete blockade

Molecule: proline-glycine-proline [PGP]
- potency as neutrophil chemoattractant relative to N-α-PGP (neutrophil): four to seven times less potent

Molecule: CCCCCCCC/C=C\CCCCCCCC(=O)NO [MMP-2-specific inhibitor, cis-9-octadecenoyl-N-hydroxylamide]
- inhibition of PGP production compared with CF sputum alone ([1]; MMP-8, -9, -2 inhibitors at 50 μM, 6 h with pooled CF sputum, then type I collagen, 50 µM): minimal effects; also recorded: Neither MMP-2-nor HNE-specific inhibitors resulted in significant changes

B1: HNE: Recombinant human neutrophil elastase (protein, UniProt P08246 30-267, looked up)
Neutrophil elastase: IVGGRRARPHAWPFMVSLQLRGGHFCGATLIAPNFVMSAAHCVANVNVRAVRVVLGAHNLSRREPTRQVFAVQRIFENGYDPVNLLNDIVILQLNGSATINANVQVAQLPAQGRRLGNGVQCLAMGWGLLGRNRGIASVLQELNVTVVTSLCRRSNVCTLVRGRQAGVCFGDSGSPLVCNGLIHGIASFVRGGCASGLYPDAFAPVAQFVNWIDSIIQRSEDNPCPHPRDPDPASRTH
- PGP production in bronchoalveolar lavage fluid [2]: did not generate PGP
